For the test, the target named is PRS (prolyl-tRNA synthetase) protein, PRS portion of EPRS (Homo sapiens (Human), UniProt P07814). Nature of the test: PRS enzyme activity inhibition experiment ([3H]proline, liquid scintillation). In kind it is biochemical. Conditions: purified PRS protein, 37° C. for 5 to 10 minutes. The procedure:
In order to confirm the biological activities of the compounds prepared in Examples, % inhibition or IC50 values of PRS enzyme ([…]) activities were calculated.
Specifically, the portion corresponding to PRS in cDNA of EPRS was subcloned, and the obtained high-purity PRS protein was purified and used in the experiment. The compounds (1 μM) prepared in Examples were added into the reaction buffer (20 mM KPO4 (pH 7.4), 6 mM MgAc, 5 mM ATP, […] tRNA, 0.5 mM DTT, […][^3H]proline (1 mCi/mL)) and allowed to react at 37° C. for 5 to 10 minutes. The reaction was terminated with 3M paper that was in advance dried by addition of 5% TCA. The radioactivity was measured using a liquid scintillation counter.
% Inhibition and IC50 values of the respective compounds were calculated and analyzed using Microsoft Excel or Sigma Plot 8.0. In Tables 1 to 3, the results are divided into A, B and C according to the range of IC50. The case where the derived IC50 is 100 nM or less is represented by “A”, the case where the IC50 is 100 to 500 nM is represented by “B”, and the case where the IC50 is 500 nM or higher is represented by “C”.

SMILES strings stand for the structures. A value given as a limit tells only on which side of the number the result lay.

As a reminder, the IC50 is the concentration that gives 50% inhibition. A low value points to greater potency.

Sequence of PRS (prolyl-tRNA synthetase) protein, PRS portion of EPRS (P07814 1007-1512): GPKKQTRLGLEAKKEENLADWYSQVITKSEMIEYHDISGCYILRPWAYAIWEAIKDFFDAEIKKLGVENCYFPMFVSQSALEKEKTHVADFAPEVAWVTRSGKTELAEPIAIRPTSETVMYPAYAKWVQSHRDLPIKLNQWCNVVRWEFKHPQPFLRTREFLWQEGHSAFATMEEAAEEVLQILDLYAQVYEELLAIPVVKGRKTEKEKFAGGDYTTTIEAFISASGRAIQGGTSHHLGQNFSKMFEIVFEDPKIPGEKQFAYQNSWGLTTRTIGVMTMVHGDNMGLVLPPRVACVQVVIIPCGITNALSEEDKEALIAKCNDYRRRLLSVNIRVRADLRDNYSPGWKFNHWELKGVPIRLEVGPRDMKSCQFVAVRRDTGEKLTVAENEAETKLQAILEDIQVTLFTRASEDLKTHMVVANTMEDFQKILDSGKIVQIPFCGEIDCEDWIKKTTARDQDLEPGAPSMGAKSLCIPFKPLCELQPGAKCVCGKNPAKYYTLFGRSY

Consider `O[C@H]1CCCN[C@@H]1/C=C/CN1CCc2ccccc21` [Example 194, (2R,3S)-2-((E)-3-(indolin-1-yl)prop-1-en-1-yl)piperidin-3-ol], for which the IC50 is ≥ 500 nM.

`Cc1c(F)ccc2ncn(CCC[C@H]3NCCC[C@@H]3O)c12` [Example 65, (2R,3S)-2-(3-(6-fluoro-7-methyl-1H-benzo[d]imidazol-1-yl)propyl)piperidin-3-ol] showed an IC50 of 100 to 500 nM.

For `O=[N+]([O-])c1c(Br)ccc2ncn(C/C=C/[C@H]3NCCC[C@@H]3O)c12` [Example 177, (2R,3S)-2-((E)-3-(6-bromo-7-nitro-1H-benzo[d]imidazol-1-yl)prop-1-en-1-yl)piperidin-3-ol], the IC50 is ≥ 500 nM.

`O[C@H]1CCCN[C@@H]1CCCn1cnc2cc(Cl)cc(-c3cccnc3)c21` [Example 86, (2R,3S)-2-(3-(5-chloro-7-(pyridin-3-yl)-1H-benzo[d]imidazol-1-yl)propyl)piperidin-3-ol] registered a 50% inhibitory concentration (IC50) of 100 to 500 nM.

`C/C(=C\[C@H]1NCCC[C@@H]1O)Cn1c(CO)nc2cc(Cl)c(Cl)cc21` [Example 224, (2R,3S)-2-((E)-3-(5,6-dichloro-2-(hydroxymethyl)-1H-benzo[d]imidazol-1-yl)-2-methylprop-1-en-1-yl)piperidin-3-ol]: the IC50 is ≥ 500 nM.

`Cc1ccc2c(ncn2CCC[C@H]2NCCC[C@@H]2O)c1C` [Example 51, (2R,3S)-2-(3-(4,5-dimethyl-1H-benzo[d]imidazol-1-yl)propyl)piperidin-3-ol]: the IC50 was ≥ 500 nM.

For `Cc1ncc(-c2cc(Cl)cc3ncn(CCC[C@H]4NCCC[C@@H]4O)c23)s1` [Example 85, (2R,3S)-2-(3-(5-chloro-7-(2-methylthiazol-5-yl)-1H-benzo[d]imidazol-1-yl)propyl)piperidin-3-ol], the IC50 was in the range of 100 to 500 nM.

As for `COc1cc2ncn(CCC[C@H]3NCCC[C@@H]3O)c2cc1Cl` [Example 37, (2R,3S)-2-(3-(6-chloro-5-methoxy-1H-benzo[d]imidazol-1-yl)propyl)piperidin-3-ol], the IC50 lay within 100 to 500 nM.

Molecule `O[C@H]1CCCN[C@@H]1/C=C/Cn1cnc2c(Cl)c(Cl)cnc21` [Example 189, (2R,3S)-2-((E)-3-(6,7-dichloro-3H-imidazo[4,5-b]pyridin-3-yl)prop-1-en-1-yl)piperidin-3-ol] showed an IC50 of 100 to 500 nM.

As to `O[C@H]1CCCN[C@@H]1CCCn1cnc2cnc(Br)cc21` [Example 124, (2R,3S)-2-(3-(6-bromo-1H-imidazo[4,5-c]pyridin-1-yl)propyl)piperidin-3-ol], the IC50 was ≥ 500 nM.

`COC(=O)c1cn(C/C=C/[C@H]2NCCC[C@@H]2O)c2ccc(Br)cc12` [Example 213, methyl 5-bromo-1-((E)-3-((2R,3S)-3-hydroxypiperidin-2-yl)allyl)-1H-indole-3-carboxylate]: the concentration for half-maximal inhibition (IC50) is ≥ 500 nM.

For the molecule `O[C@H]1CCCN[C@@H]1CCCn1cnc2cccc(F)c21` [Example 9, (2R,3S)-2-(3-(7-fluoro-1H-benzo[d]imidazol-1-yl)propyl)piperidin-3-ol], the IC50 is ≥ 500 nM.

As for `CNC(=O)c1cn(C/C=C/[C@H]2NCCC[C@@H]2O)c2ccc(Br)cc12` [Example 215, 5-bromo-1-((E)-3-((2R,3S)-3-hydroxypiperidin-2-yl)allyl)-N-methyl-1H-indole-3-carboxamide], the half-inhibitory concentration (IC50) is ≥ 500 nM.

For `COC(=O)c1cn(CCC[C@H]2NCCC[C@@H]2O)c2c(Cl)cccc12` [Example 154, methyl 7-chloro-1-(3-((2R,3S)-3-hydroxypiperidin-2-yl)propyl)-1H-indole-3-carboxylate], the IC50 was in the range of 100 to 500 nM.

The molecule `COc1ccc2ncn(CCC[C@H]3NCCC[C@@H]3O)c2c1Cl` [Example 60, (2R,3S)-2-(3-(7-chloro-6-methoxy-1H-benzo[d]imidazol-1-yl)propyl)piperidin-3-ol] showed a 50% inhibitory concentration (IC50) of 100 to 500 nM.

For `O=C(O)c1cn(C/C=C/[C@H]2NCCC[C@@H]2O)c2ccc(Br)cc12` [Example 204, 5-bromo-1-((E)-3-((2R,3S)-3-hydroxypiperidin-2-yl)allyl)-1H-indole-3-carboxylic acid], the concentration for half-maximal inhibition (IC50) is ≥ 500 nM.

For the molecule `O[C@H]1CCCN[C@@H]1CCCn1cnc2c(N3CCCCC3)ncnc21` [Example 141, (2R,3S)-2-(3-(6-(piperidin-1-yl)-9H-purin-9-yl)propyl)piperidin-3-ol], the IC50 was ≥ 500 nM.

Consider `O[C@H]1CCCN[C@@H]1CCCn1cnc2cc(Br)cc(Cl)c21` [Example 70, (2R,3S)-2-(3-(5-bromo-7-chloro-1H-benzo[d]imidazol-1-yl)propyl)piperidin-3-ol], for which the IC50 is ≤ 100 nM.

Consider `O[C@H]1CCCN[C@@H]1CCCn1cnc2cc(Cl)cc(-c3ccsc3)c21` [Example 91, (2R,3S)-2-(3-(5-chloro-7-(thiophen-3-yl)-1H-benzo[d]imidazol-1-yl)propyl)piperidin-3-ol], for which the concentration for half-maximal inhibition (IC50) was ≤ 100 nM.

Take `O[C@H]1CCCN[C@@H]1CCCn1cnc2c(N3CCOCC3)ncnc21` [Example 140, (2R,3S)-2-(3-(6-morpholino-9H-purin-9-yl)propyl)piperidin-3-ol]: the IC50 is ≥ 500 nM.

For the molecule `O[C@H]1CCCN[C@@H]1CCCn1cnc2cc(Cl)cc(-c3cnn(CCF)c3)c21` [Example 112, (2R,3S)-2-(3-(5-chloro-7-(1-(2-fluoroethyl)-1H-pyrazol-4-yl)-1H-benzo[d]imidazol-1-yl)propyl)piperidin-3-ol], the IC50 lay within 100 to 500 nM.

`OCc1nc2cc(Cl)c(Cl)cc2n1CCC[C@H]1NCCC[C@@H]1O` [Example 147, (2R,3S)-2-(3-(5,6-dichloro-2-(hydroxymethyl)-1H-benzo[d]imidazol-1-yl)propyl)piperidin-3-ol]: the IC50 was ≥ 500 nM.

In the case of `N#Cc1nc(-c2cc(Cl)cc3ncn(CCC[C@H]4NCCC[C@@H]4O)c23)cs1` [Example 105, 4-(5-chloro-1-(3-((2R,3S)-3-hydroxypiperidin-2-yl)propyl)-1H-benzo[d]imidazol-7-yl)thiazole-2-carbonitrile], the IC50 was ≥ 500 nM.

As to `Cn1c(=O)n(CCC[C@H]2NCCC[C@@H]2O)c2ccccc21` [Example 159, 1-(3-((2R,3S)-3-hydroxypiperidin-2-yl)propyl)-3-methyl-1H-benzo[d]imidazol-2(3H)-one], the IC50 is ≥ 500 nM.

As for `COC(=O)c1cn(CCC[C@H]2NCCC[C@@H]2O)c2ccc(Br)cc12` [Example 150, methyl 5-bromo-1-(3-((2R,3S)-3-hydroxypiperidin-2-yl)propyl)-1H-indole-3-carboxylate], the half-inhibitory concentration (IC50) was ≥ 500 nM.

`O[C@H]1CCCN[C@@H]1CCCn1cnc2ccc(Br)cc21` [Example 4, (2R,3S)-2-(3-(6-bromo-1H-benzo[d]imidazol-1-yl)propyl)piperidin-3-ol] came in with a 50% inhibitory concentration (IC50) of 100 to 500 nM.

In turn, `O[C@H]1CCCN[C@@H]1CCCn1cnc2c(Cl)cccc21` [Example 10, (2R,3S)-2-(3-(4-chloro-1H-benzo[d]imidazol-1-yl)propyl)piperidin-3-ol] showed an IC50 of 100 to 500 nM.

Turning to `CCOC(=O)c1cc(-c2cc(Cl)cc3ncn(CCC[C@H]4NCCC[C@@H]4O)c23)cn1C` [Example 116, ethyl 4-(5-chloro-1-(3-((2R,3S)-3-hydroxypiperidin-2-yl)propyl)-1H-benzo[d]imidazol-7-yl)-1-methyl-1H-pyrrole-2-carboxylate], the IC50 is ≤ 100 nM.

On to `O[C@H]1CCCN[C@@H]1CCCn1cnc2cc(Cl)ccc21` [Example 11, (2R,3S)-2-(3-(5-chloro-1H-benzo[d]imidazol-1-yl)propyl)piperidin-3-ol], for which the concentration for half-maximal inhibition (IC50) lay in the range of 100 to 500 nM.

For the molecule `O[C@H]1CCCN[C@@H]1/C=C/Cn1ncc2cc(Cl)cnc21` [Example 200, (2R,3S)-2-((E)-3-(5-chloro-1H-pyrazolo[3,4-b]pyridin-1-yl)prop-1-en-1-yl)piperidin-3-ol], the concentration for half-maximal inhibition (IC50) was ≥ 500 nM.

Regarding `O=c1[nH]c2ccc(Br)cc2n1CCC[C@H]1NCCC[C@@H]1O` [Example 161, 6-bromo-1-(3-((2R,3S)-3-hydroxypiperidin-2-yl)propyl)-1H-benzo[d]imidazol-2(3H)-one], the 50% inhibitory concentration (IC50) is ≥ 500 nM.

With `O[C@H]1CCCN[C@H]1CCCn1cnc2c(Cl)c(Cl)ccc21` [Example 41, (2S,3S)-2-(3-(4,5-dichloro-1H-benzo[d]imidazol-1-yl)propyl)piperidin-3-ol], the IC50 was ≥ 500 nM.

The molecule `COc1ccc2c(ncn2CCC[C@H]2NCCC[C@@H]2O)c1Cl` [Example 59, (2R,3S)-2-(3-(4-chloro-5-methoxy-1H-benzo[d]imidazol-1-yl)propyl)piperidin-3-ol] had a concentration for half-maximal inhibition (IC50) of 100 to 500 nM.

Consider `O[C@H]1CCCN[C@@H]1CCCn1cnc2c(F)cccc21` [Example 6, (2R,3S)-2-(3-(4-fluoro-1H-benzo[d]imidazol-1-yl)propyl)piperidin-3-ol], for which the IC50 was ≥ 500 nM.

In the case of `COc1cc2ncn(CCC[C@H]3NCCC[C@@H]3O)c2cc1F` [Example 38, (2R,3S)-2-(3-(6-fluoro-5-methoxy-1H-benzo[d]imidazol-1-yl)propyl)piperidin-3-ol], the half-inhibitory concentration (IC50) was ≥ 500 nM.

With `O[C@H]1CCCN[C@@H]1CCCn1cnc2cc(C(F)(F)F)cc(Br)c21` [Example 71, (2R,3S)-2-(3-(7-bromo-5-(trifluoromethyl)-1H-benzo[d]imidazol-1-yl)propyl)piperidin-3-ol], the IC50 lay in the range of 100 to 500 nM.

`O[C@H]1CCCN[C@@H]1CCCn1cnc2cc(Cl)cc(-c3cccc(F)c3)c21` [Example 83, (2R,3S)-2-(3-(5-chloro-7-(3-fluorophenyl)-1H-benzo[d]imidazol-1-yl)propyl)piperidin-3-ol]: the half-maximal inhibitory concentration (IC50) was ≤ 100 nM.
